Where only a bound is given, the exact number is not on record here.

This note sets out measurements from paper PMC8921294, “Inhibition of mitochondrial LonP1 protease by allosteric blockade of ATP binding and hydrolysis via CDDO and its derivatives” (The Journal of Biological Chemistry, 2022).

The target in assay [1] is T1, Human LonP1 protease (Homo sapiens, UniProt P36776).
T1 construct: hexa-histidine (N); made in house; host or cells: Rosetta 2 E. coli
T1 sequence (P36776 68-959): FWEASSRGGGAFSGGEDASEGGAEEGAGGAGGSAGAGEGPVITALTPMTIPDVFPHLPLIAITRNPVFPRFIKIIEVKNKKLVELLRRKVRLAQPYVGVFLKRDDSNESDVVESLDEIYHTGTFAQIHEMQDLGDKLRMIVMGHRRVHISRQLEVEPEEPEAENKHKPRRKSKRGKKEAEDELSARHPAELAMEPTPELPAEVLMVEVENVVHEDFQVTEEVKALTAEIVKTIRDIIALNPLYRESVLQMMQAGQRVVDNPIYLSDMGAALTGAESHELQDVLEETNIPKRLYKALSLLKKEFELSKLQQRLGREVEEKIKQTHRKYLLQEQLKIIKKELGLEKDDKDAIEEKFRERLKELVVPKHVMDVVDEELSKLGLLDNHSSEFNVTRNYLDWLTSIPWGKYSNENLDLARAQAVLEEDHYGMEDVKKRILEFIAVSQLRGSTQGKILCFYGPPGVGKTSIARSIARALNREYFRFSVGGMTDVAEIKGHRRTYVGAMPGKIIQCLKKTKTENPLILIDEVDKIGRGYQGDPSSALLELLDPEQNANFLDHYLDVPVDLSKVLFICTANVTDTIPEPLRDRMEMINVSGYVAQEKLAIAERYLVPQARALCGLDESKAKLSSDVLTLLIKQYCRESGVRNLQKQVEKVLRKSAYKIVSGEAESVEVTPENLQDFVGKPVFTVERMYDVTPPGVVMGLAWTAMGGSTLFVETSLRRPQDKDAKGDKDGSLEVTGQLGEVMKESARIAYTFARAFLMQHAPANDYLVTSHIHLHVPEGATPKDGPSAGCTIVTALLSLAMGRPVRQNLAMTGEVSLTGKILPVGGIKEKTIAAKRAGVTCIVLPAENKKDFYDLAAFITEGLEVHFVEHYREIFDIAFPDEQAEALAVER
In words: FITC-casein protease assay (ATP-dependent proteolysis). In kind it is biochemical. As to conditions: for Inhibition of LonP1-mediated degradation of FITC-casein: 30 min preincubation at 30 °C, ATP 4 mM; for Preincubation time after which ATP-dependent proteolysis is inhibited: preincubation at 30 °C. How it is done: Human LonP1 (1.0 μM monomer) was preincubated with CDDO derivatives, TP-82, enoxolone (5 μM) or DMSO vehicle control (1%) in buffer (150 mM NaCl, 50 mM Hepes-KOH pH 8.0, 10 mM MgCl2, 0.1 mg/ml BSA) for 30 min at 30 °C. Reactions were initiated by the addition of FITC-casein (0.1 mg/ml) and ATP (4.0 mM) and incubated at 37 °C. The kinetics of FITC-casein degradation was measured by the increase in relative fluorescence units (RFU) at 490–525 nm wavelength at 37 °C using a Spectramax or Biotek Synergy plate reader. For endpoint assays, aliquots of reactions incubated at 37 °C were removed at indicated time points and terminated by adding 5X reducing sample buffer (RSB). The decrease of intact FITC-casein was determined by SDS-PAGE followed by visualization using FluorChem or Chemi-Doc systems.
Reactions (500 μl) containing LonP1 (1.0 μM monomer) in buffer (150 mM NaCl, 50 mM Hepes-KOH pH 8.0, 10 mM MgCl2) were preincubated with CDDO-Me (10 μM) or DMSO (1%) for 60 min at 30 °C. After this period, respective aliquots (50 μl) were removed and assayed for FITC-casein degradation to confirm inhibition by CDDO-Me. The remaining 450 μl reaction was transferred to a Slide-A-Lyzer (100 kDa MWCO) and dialyzed against 500 ml Buffer K (50 mM Hepes KOH, pH 8.0, 150 mM NaCl, 10 mM MgOAc2, 20% glycerol) for 24 h at 4 °C. After this period, the protein concentration was measured to determine protein recovery and the protease activity of LonP1, which had been preincubated with and without CDDO-Me was measured using the FITC-casein degradation assay.

For assay [2], the system named is heme oxygenase 1 (HO-1). As to the kind of experiment: HO-1 stabilisation in HeLa ρ^0 cells (immunoblot). The class given is cell-based, human. As to conditions: 7 h. How it is done:
LonP1 knockdown stabilized HO-1 protein, whereas LonP1 overexpression decreased HO-1 protein (Fig. 4, E and F).
HeLa cells devoid of mitochondrial DNA (HeLa ρ^0) and LCL cells were generated as described previously ([50]). DMEM, RPMI, and fetal bovine serum were purchased from Sigma. All cells were grown with 5% CO2 at 37 °C. LCL cells were cultured in RPMI supplemented with 15% FBS. HeLa Rho 0 cells were cultured in high glucose DMEM (25 mM) (Sigma) supplemented with sodium pyruvate ([…]) and uridine ([…]). CDDO-Me was purchased from Cayman chemicals, and CDDO-AH was synthesized as described previously ([20]). HEK293 cells plated in 60 mm dishes at a confluency of 60 to 70% were transfected with Control or 3′UTR LonP1 siRNA using Lipofectamine 2000 (Invitrogen) and reduced serum OPTI MEM (Sigma) as described in the manufacturer’s protocol to knockdown LonP1, whereas adenoviral transduction was employed to overexpress LonP1. CDDO-Me and CDDO-anhydride were dissolved in DMSO and serially diluted in the respective complete medium and added to HeLa ρ^0 cells and were treated for 7 or 24 h.
Cells were harvested, centrifuged, and washed with PBS and proteins were extracted by adding the lysis buffer (50 mM Tris, [pH 7.5], 300 mM NaCl, and 0.5% Triton X-100) containing 2X Halt phosphatase and protease cocktail inhibitor (Thermo Scientific) for 20 min on ice. […]
(A western blot detects proteins with antibodies after separation by electrophoresis.)

Take `CC1(C)CC[C@]2(C(=O)O)CC[C@]3(C)[C@H](C(=O)C=C4[C@@]5(C)C=C(C#N)C(=O)C(C)(C)[C@@H]5CC[C@]43C)[C@@H]2C1` [CDDO, 2-cyano-3,12-dioxooleana-1,9(11)-dien-28-oic acid]: in assay [1], the “Inhibition of LonP1-mediated degradation of FITC-casein” value is “inhibit” and the “Preincubation time after which ATP-dependent proteolysis is inhibited” value is reported as ≥ 20 min.
For `COC(=O)[C@]12CCC(C)(C)C[C@H]1[C@H]1C(=O)C=C3[C@@]4(C)C=C(C#N)C(=O)C(C)(C)[C@@H]4CC[C@@]3(C)[C@]1(C)CC2` [CDDO-Me], the “Concentration stabilising HO-1” value in assay [2] is ≥ 0.125 µM. In addition, the “Reversibility: proteolytic activity after dialysis” value in assay [1] (10 μM, dialysis at 4 °C for 24 h) is listed as “restored proteolytic activity”. Besides, the “Degradation of FITC-casein before dialysis” value in assay [1] (10 μM, preincubation 60 min at 30 °C) was “completely block”. In assay [1], the “Inhibition of LonP1-mediated degradation of FITC-casein” value is listed as “inhibit” and the “Preincubation time after which ATP-dependent proteolysis is inhibited” value amounted to 5 min.
As for `CC1(C)CC[C@]2(C(=O)OC(=O)[C@]34CCC(C)(C)C[C@H]3[C@H]3C(=O)C=C5[C@@]6(C)C=C(C#N)C(=O)C(C)(C)[C@@H]6CC[C@@]5(C)[C@]3(C)CC4)CC[C@]3(C)[C@H](C(=O)C=C4[C@@]5(C)C=C(C#N)C(=O)C(C)(C)[C@@H]5CC[C@]43C)[C@@H]2C1` [CDDO-anhydride], the “Concentration stabilising HO-1” value in assay [2] was ≥ 0.25 µM.
